For one data set, the target named is Carbonic anhydrase 2 (Homo sapiens, UniProt P00918). Put plainly: DRUGMATRIX: Carbonic Anhydrase II enzyme inhibition (substrate: 4-Nitrophenyl acetate (4-NPA)). Type of data set: tissue-based, Erythrocyte. Particulars: erythrocyte; Not Active = under 50% inhibition at 10 µM.
Data set [1] concerns the target C-C chemokine receptor type 5 (Homo sapiens, UniProt P51681). In kind it is cell membranes, Membrane. Particulars: hek293. Further: in other assays of this panel Not Active means under 50% inhibition at 10 µM.
In another data set the target is T1, D(4) dopamine receptor (Homo sapiens, UniProt P21917).
T1 sequence (P21917 whole entry): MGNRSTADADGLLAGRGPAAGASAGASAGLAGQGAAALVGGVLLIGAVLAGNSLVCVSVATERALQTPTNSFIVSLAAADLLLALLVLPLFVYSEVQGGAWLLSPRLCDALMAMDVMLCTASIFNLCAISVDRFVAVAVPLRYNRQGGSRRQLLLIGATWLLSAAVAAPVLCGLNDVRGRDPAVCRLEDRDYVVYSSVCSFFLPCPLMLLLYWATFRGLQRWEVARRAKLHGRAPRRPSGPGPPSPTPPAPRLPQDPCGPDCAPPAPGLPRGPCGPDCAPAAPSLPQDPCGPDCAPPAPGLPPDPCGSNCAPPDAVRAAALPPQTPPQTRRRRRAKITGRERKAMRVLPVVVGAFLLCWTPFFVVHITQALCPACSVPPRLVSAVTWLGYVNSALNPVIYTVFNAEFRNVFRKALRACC
Put plainly: DRUGMATRIX: Dopamine D4.2 radioligand binding (ligand: [3H] Spiperone). In kind it is cell membranes, CHO-K1, Membrane. Conditions: cho-k1; Not Active = under 50% inhibition at 10 µM.

Data set [2] is described as follows: DRUGMATRIX: Phosphodiesterase PDE4 enzyme inhibition (substrate: [3H]cAMP + cAMP). Particulars: u-937, Not Active = under 50% inhibition at 10 µM.
Data set [3] can be described thus: DRUGMATRIX: Platelet-Derived Growth Factor (PDGF) radioligand binding (ligand: [125I] PDGF). Conditions: nih3t3; Not Active = under 50% inhibition at 10 µM. In kind it is cell-based.
A further data set has as its target T2, Progesterone receptor (Bos taurus, UniProt Q690N0).
T2 sequence (Q690N0 whole entry): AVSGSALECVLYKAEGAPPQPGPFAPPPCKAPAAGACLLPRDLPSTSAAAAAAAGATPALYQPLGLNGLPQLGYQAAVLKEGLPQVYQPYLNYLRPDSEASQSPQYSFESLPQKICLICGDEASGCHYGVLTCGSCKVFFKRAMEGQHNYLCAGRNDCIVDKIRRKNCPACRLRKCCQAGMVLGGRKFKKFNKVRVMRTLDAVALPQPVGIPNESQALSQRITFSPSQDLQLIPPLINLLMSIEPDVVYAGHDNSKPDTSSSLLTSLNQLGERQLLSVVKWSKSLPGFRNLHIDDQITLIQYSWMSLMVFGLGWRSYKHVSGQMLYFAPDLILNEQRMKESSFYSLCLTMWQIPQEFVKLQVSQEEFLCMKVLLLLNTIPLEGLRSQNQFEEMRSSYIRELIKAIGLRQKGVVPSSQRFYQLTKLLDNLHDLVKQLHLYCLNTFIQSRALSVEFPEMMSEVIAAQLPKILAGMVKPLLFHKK
As to the kind of experiment: DRUGMATRIX: Progesterone radioligand binding (ligand: [3H] R-5020). In kind it is tissue-based, Uterus. Conditions: Not Active = under 50% inhibition at 10 µM; for Ki: read-out: Ki.

The target of data set [4] is Voltage-gated inwardly rectifying potassium channel KCNH2 (Homo sapiens, UniProt Q12809). Conditions: hek293. Further: in other assays of this panel Not Active means under 50% inhibition at 10 µM.
Sequence of Voltage-gated inwardly rectifying potassium channel KCNH2 (Q12809 whole entry): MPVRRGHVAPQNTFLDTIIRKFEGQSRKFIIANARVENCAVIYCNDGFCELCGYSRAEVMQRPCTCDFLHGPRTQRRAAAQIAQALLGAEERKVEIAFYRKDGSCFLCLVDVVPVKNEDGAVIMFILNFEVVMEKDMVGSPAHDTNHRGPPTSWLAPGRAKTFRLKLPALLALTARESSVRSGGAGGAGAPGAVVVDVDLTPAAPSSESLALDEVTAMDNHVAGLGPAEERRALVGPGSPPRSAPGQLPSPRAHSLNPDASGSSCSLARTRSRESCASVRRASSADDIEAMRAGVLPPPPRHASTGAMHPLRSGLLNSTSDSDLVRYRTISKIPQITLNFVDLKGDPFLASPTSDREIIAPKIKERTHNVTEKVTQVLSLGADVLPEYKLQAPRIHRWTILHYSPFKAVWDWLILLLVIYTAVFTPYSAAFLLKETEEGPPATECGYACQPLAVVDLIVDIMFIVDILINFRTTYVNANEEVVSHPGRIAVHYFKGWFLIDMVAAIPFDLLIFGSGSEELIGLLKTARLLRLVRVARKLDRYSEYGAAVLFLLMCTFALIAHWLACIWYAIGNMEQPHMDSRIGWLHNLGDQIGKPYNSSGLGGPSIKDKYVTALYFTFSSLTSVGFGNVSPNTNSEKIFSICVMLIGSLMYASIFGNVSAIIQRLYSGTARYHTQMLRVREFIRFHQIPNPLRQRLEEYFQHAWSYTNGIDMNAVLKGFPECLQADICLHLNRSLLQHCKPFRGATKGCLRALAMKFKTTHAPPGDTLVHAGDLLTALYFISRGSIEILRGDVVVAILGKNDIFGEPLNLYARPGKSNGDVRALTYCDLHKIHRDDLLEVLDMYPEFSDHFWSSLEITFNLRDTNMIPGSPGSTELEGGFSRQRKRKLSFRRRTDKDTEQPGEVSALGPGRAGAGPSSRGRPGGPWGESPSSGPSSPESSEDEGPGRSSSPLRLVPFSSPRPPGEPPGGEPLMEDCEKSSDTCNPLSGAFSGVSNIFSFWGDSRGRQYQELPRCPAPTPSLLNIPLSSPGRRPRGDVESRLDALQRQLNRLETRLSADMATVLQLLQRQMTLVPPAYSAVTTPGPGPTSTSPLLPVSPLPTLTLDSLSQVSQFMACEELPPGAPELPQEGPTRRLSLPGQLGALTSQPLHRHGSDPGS

What is called IC50 is the point on the concentration scale where inhibition reaches its midpoint. One may read the Ki as a measure of affinity in units of concentration, obtained from inhibition or displacement.

Sequence of C-C chemokine receptor type 5 (P51681 whole entry): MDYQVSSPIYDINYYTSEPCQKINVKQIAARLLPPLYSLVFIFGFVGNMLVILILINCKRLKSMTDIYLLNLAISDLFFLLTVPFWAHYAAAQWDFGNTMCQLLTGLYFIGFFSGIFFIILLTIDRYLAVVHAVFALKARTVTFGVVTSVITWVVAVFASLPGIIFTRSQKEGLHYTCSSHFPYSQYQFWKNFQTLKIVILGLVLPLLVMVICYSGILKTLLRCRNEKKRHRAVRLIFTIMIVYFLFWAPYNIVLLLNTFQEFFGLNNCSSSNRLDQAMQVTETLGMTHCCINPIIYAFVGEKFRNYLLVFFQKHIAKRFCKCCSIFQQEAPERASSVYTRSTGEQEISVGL

As to `CCOc1nc2cccc(C(=O)O)c2n1Cc1ccc(-c2ccccc2-c2nnn[nH]2)cc1`, the IC50 entry on Carbonic anhydrase 2 is “Not Active”; in data set [1] it was “Not Active”; on D(4) dopamine receptor, “Not Active”; in data set [2] (read-out: IC50) it was 276 nM; in data set [3] it was “Not Active”; at Progesterone receptor, “Not Active”. In addition, in data set [4], the 50% inhibitory concentration (IC50) entry is on record as “Not Active”. The Ki entry in data set [3] and in data set [4] was “Not Active” throughout.
Consider `O=C(O)CCCc1cccs1`, for which the IC50 result (against Carbonic anhydrase 2; in data set [1]; on D(4) dopamine receptor; in data set [2]; in data set [3]; at Progesterone receptor) was “Not Active” throughout. In addition, the IC50 entry in data set [4] is given as “Not Active”. The Ki entry in data set [2], in data set [3] and in data set [4] was “Not Active” each time.
Turning to `COc1ccccc1N`, the IC50 entry (at Carbonic anhydrase 2; in data set [1]; on D(4) dopamine receptor; in data set [2]; in data set [3]; on Progesterone receptor) was “Not Active” throughout. In addition, the IC50 entry in data set [4] is “Not Active”. The Ki result in data set [2], in data set [3] and in data set [4] was “Not Active” throughout.
Regarding `O=C(c1ccccc1F)N1CCC(Cc2ccccc2)CC1`, the IC50 entry (on Carbonic anhydrase 2; in data set [1]; at D(4) dopamine receptor; in data set [2]; in data set [3]; at Progesterone receptor) was “Not Active” each time. Also, the IC50 entry in data set [4] is given as “Not Active”. Also, the Ki result in data set [2], in data set [3] and in data set [4] was “Not Active” each time.
For `Cc1c(O)cccc1C(=O)N[C@@H](CSc1ccccc1)[C@H](O)CN1C[C@H]2CCCC[C@H]2C[C@H]1C(=O)NC(C)(C)C`, the IC50 result on Carbonic anhydrase 2 is “Not Active”; in data set [1], “Not Active”; at D(4) dopamine receptor, “Not Active”; in data set [2] it was “Not Active”; in data set [3] it was “Not Active”; at Progesterone receptor (read-out: IC50), 44500 nM. The IC50 result in data set [4] is recorded as “Not Active”. For the same compound, the Ki result was “Not Active” in data set [2], “Not Active” in data set [3], 5800 nM on Progesterone receptor and “Not Active” in data set [4].
Regarding `CC(O)COC[C@H]1O[C@@H]2O[C@H]3[C@H](O)[C@@H](O)[C@@H](O[C@H]4[C@H](O)[C@@H](O)[C@@H](O[C@H]5[C@H](O)[C@@H](O)[C@@H](O[C@H]6[C@H](O)[C@@H](O)[C@@H](O[C@H]7[C@H](O)[C@@H](O)[C@@H](O[C@H]8[C@H](O)[C@@H](O)[C@@H](O[C@H]1[C@H](O)[C@H]2O)O[C@@H]8COCC(C)O)O[C@@H]7COCC(C)O)O[C@@H]6COCC(C)O)O[C@@H]5COCC(C)O)O[C@@H]4COCC(C)O)O[C@@H]3COCC(C)O` (stereo partly drawn) [2-HYDROXYPROPYL-BETA-CYCLODEXTRIN], the 50% inhibitory concentration (IC50) entry (against Carbonic anhydrase 2; in data set [1]; at D(4) dopamine receptor; in data set [2]; in data set [3]; on Progesterone receptor) was “Not Active” throughout. Further, the IC50 result in data set [4] is on record as “Not Active”. Further, the Ki result in data set [2], in data set [3] and in data set [4] was “Not Active” throughout.
As to `NC(=O)c1cccc(N)c1` [3-AMINOBENZAMIDE], the 50% inhibitory concentration (IC50) result (at Carbonic anhydrase 2; in data set [1]; at D(4) dopamine receptor; in data set [2]; in data set [3]; at Progesterone receptor) was “Not Active” each time. Besides, the IC50 entry in data set [4] was “Not Active”. Besides, the inhibition constant (Ki) result in data set [2], in data set [3] and in data set [4] was “Not Active” throughout.
Regarding `NCCCNCCSP(=O)(O)O` [AMIFOSTINE], the IC50 result (on Carbonic anhydrase 2; in data set [1]; at D(4) dopamine receptor; in data set [2]; in data set [3]; in data set [4]) was “Not Active” in each case. The inhibitory constant (Ki) result in data set [2], in data set [3] and in data set [4] was “Not Active” throughout.
Take `CN(C)CCC=C1c2ccccc2CCc2ccccc21` [AMITRIPTYLINE]: the IC50 result (against Carbonic anhydrase 2; in data set [1]; at D(4) dopamine receptor; in data set [2]; in data set [3]; at Progesterone receptor) was “Not Active” each time. Further, the Ki entry in data set [2] and in data set [3] was “Not Active” in each case.
For `CC(C)c1c(C(=O)Nc2ccccc2)c(-c2ccccc2)c(-c2ccc(F)cc2)n1CC[C@@H](O)C[C@@H](O)CC(=O)O` [ATORVASTATIN], the IC50 result (against Carbonic anhydrase 2; in data set [1]; at D(4) dopamine receptor; in data set [2]; in data set [3]; at Progesterone receptor) was “Not Active” in each case. For the same compound, the Ki entry in data set [2] and in data set [3] was “Not Active” each time.
`C#C[C@]1(O)CC[C@H]2[C@@H]3CCC4=CC(=O)CC[C@]4(C)[C@H]3CC[C@@]21C` [ETHISTERONE]: the IC50 entry against Carbonic anhydrase 2 was “Not Active”; in data set [1] it was “Not Active”; at D(4) dopamine receptor, “Not Active”; in data set [2], “Not Active”; in data set [3], “Not Active”; at Progesterone receptor (read-out: IC50) it was 59 nM. Besides, the Ki result is “Not Active” in data set [2], “Not Active” in data set [3] and 7.75 nM at Progesterone receptor.
`CC(O)(P(=O)(O)O)P(=O)(O)O` [ETIDRONIC ACID]: the IC50 result (on Carbonic anhydrase 2; in data set [1]; at D(4) dopamine receptor; in data set [2]; in data set [3]; in data set [4]) was “Not Active” in each case. For the same compound, the Ki result in data set [2], in data set [3] and in data set [4] was “Not Active” each time.
Consider `CC(C)(C(=O)O)c1ccc(C(O)CCCN2CCC(C(O)(c3ccccc3)c3ccccc3)CC2)cc1` (configuration not stated) [FEXOFENADINE], for which the IC50 result (on Carbonic anhydrase 2; in data set [1]; on D(4) dopamine receptor; in data set [2]; in data set [3]; at Progesterone receptor) was “Not Active” throughout. For the same compound, the Ki entry in data set [2] and in data set [3] was “Not Active” each time.
Turning to `CCn1cc(C(=O)O)c(=O)c2cc(F)c(N3CCNC(C)C3)c(F)c21` (configuration not stated) [LOMEFLOXACIN], the IC50 entry (against Carbonic anhydrase 2; in data set [1]; at D(4) dopamine receptor; in data set [2]; in data set [3]; on Progesterone receptor) was “Not Active” each time. Moreover, the inhibitory constant (Ki) result in data set [2] and in data set [3] was “Not Active” throughout.
For `N=C(N)c1ccc(OCCCCCOc2ccc(C(=N)N)cc2)cc1` [PENTAMIDINE], the IC50 result (at Carbonic anhydrase 2; in data set [1]; at D(4) dopamine receptor; in data set [2]; in data set [3]; at Progesterone receptor) was “Not Active” in each case. The inhibition constant Ki result in data set [2] and in data set [3] was “Not Active” each time.

(Values after ChEMBL document CHEMBL1909046, “DrugMatrix in vitro pharmacology data”.)
